The values that follow come from patent US20120202849A1, “PHARMACEUTICAL COMPOSITIONS FOR THE TREATMENT/PROPHYLAXIS OF NON-ALCOHOLIC FATTY LIVER DISEASE” (priority 2009, published 2012).

Assay [1] deals with fructose induced fatty liver. Briefly: Histopathological examination of NAFLD induced liver tissue. The conditions noted are these: after 14 days; monotherapy or high dose combination: HCQ 160 mg/kg p.o., ATV 8 mg/kg p.o., MET 500 mg/kg. It is filed as in vivo, Wistar rats. Here is the method: In this experiment 66 Wistar rats weighing 150-200 g of either sex were divided randomly into 11 groups consisting of six rats each. Group 1 (normal control) consisted of normal rats that neither received fructose nor any drug, Group 2 served as NAFLD induced control (NAFLD was induced in rats by replacing water with 10% fructose solution for two weeks) which received vehicle orally, Group 3 was NAFLD induced and treated with HCQ (160 mg/kg), Group 4 was NAFLD induced and treated with ATV (8 mg/kg), Group 5 was NAFLD induced and treated with MET (500 mg/kg), Group 6 was NAFLD induced and treated with low dose combination of HCQ (80 mg/kg) and MET (250 mg/kg). Group 7 was NAFLD induced and treated with high dose combination of HCQ (160 mg/kg) and MET (500 mg/kg). Group 8 was NAFLD induced and treated with low dose combination of HCQ (80 mg/kg) and ATV (4 mg/kg). Group 9 was NAFLD induced and treated with high dose combination of HCQ (160 mg/kg) and ATV (8 mg/kg). Group 10 was NAFLD induced and treated with low dose combination of ATV (4 mg/kg), HCQ (80 mg/kg) and MET (250 mg/kg) whereas Group 11 was NAFLD induced and treated with high dose combination of ATV (8 mg/kg), HCQ (160 mg/kg) and MET (500 mg/kg). The study drugs suspended in vehicle [0.1% w/v suspension of Tween 80 and carboxymethylcellulose (CMC) in water] were administered for 14 days. After 14 days treatment, all the animals were sacrificed under chloroform anesthesia and blood was collected for determination of blood glucose levels, triglyceride levels, SGPT, SGOT, alkaline phosphatase and total cholesterol using autoanalyser (Microlab 2000) Liver index was also calculated based upon the body weight and liver weight. At the end of the therapy histopathological evaluations were performed.

The test system of assay [2] is fructose induced fatty liver. The experiment in a line: Fructose induced fatty liver (NAFLD) in rats: biochemical parameters, body and liver weight, liver index after 14 days oral treatment. It is filed as in vivo, Wistar rats. The conditions noted are these: monotherapy or high dose combination: HCQ 160 mg/kg, ATV 8 mg/kg, MET 500 mg/kg, Mean ± S.D.; for Alk. PO4: alkaline phosphatase; for Glucose: blood; for Liver Index: calculated from body weight and liver weight; for TC (Total Cholesterol) / TG (Triglyceride): serum. An excerpt: The study was based on the experiment on rats with fatty liver induced by fructose feeding and given oral doses of different strengths of the corresponding drug samples for 14 days. It was concluded from the study that the protection given by the combination therapy is more as compared to monotherapy. […] In this experiment 66 Wistar rats weighing 150-200 g of either sex were divided randomly into 11 groups consisting of six rats each. […] Group 7 was NAFLD induced and treated with high dose combination of HCQ (160 mg/kg) and MET (500 mg/kg). Group 8 was NAFLD induced and treated with low dose combination of HCQ (80 mg/kg) and ATV (4 mg/kg). Group 9 was NAFLD induced and treated with high dose combination of HCQ (160 mg/kg) and ATV (8 mg/kg). Group 10 was NAFLD induced and treated with low dose combination of ATV (4 mg/kg), HCQ (80 mg/kg) and MET (250 mg/kg) whereas Group 11 was NAFLD induced and treated with high dose combination of ATV (8 mg/kg), HCQ (160 mg/kg) and MET (500 mg/kg). […] At the end of the therapy histopathological evaluations were performed.

For assay [3] the following is noted: patients treated with hydroxychloroquine; cited from earlier work.
The conditions of assay [4]: patients on combined insulin and hydroxychloroquine therapy; average; cited from earlier work.

For `CN(C)C(=N)N=C(N)N` [MET, Metformin], in assay [1], the “Histopathological examination of liver” value is “Liver cells showed regeneration and repair in the form of nucleolation and absence of coarse fat vacuoles”. In assay [2], the “Alk. PO4” value was 61 ± 6.32 U/L, the Glucose worked out at 125.16 ± 6.24 mg/dL, the “Liver Index” value was 4.50 ± 0.30 and the “Liver Weight” value stood at 7.63 ± 0.30 g. Moreover, in assay [2], the SGOT was determined as 132.33 ± 8.98 U/L, the SGPT is given as 43.66 ± 7.33 U/L, the “TC (Total Cholesterol)” value was determined as 155.66 ± 10.85 mg/dL and the “TG (Triglyceride)” value came out at 516.33 ± 56.25 mg/dL.

As for `CCN(CCO)CCCC(C)Nc1ccnc2cc(Cl)ccc12` (stereo not shown) [HCQ, Hydroxychloroquine], in assay [1], the “Histopathological examination of liver” value is listed as “did not show any recovery from fatty change”. For the same compound, the “Decrease in serum levels of cholesterol” value in assay [3] is recorded as “approximately 10%”. Besides, in assay [2], the “Alk. PO4” value is reported as 63.16 ± 4.07 U/L, the Glucose amounted to 157.16 ± 7.93 mg/dL, the “Liver Index” value is recorded as 4.53 ± 0.10 and the “Liver Weight” value stood at 7.64 ± 0.33 g. Further, in assay [2], the SGOT is 137.83 ± 10.59 U/L, the SGPT was 44.83 ± 2.78 U/L, the “TC (Total Cholesterol)” value is 159.66 ± 10.23 mg/dL and the “TG (Triglyceride)” value was found to be 556.66 ± 12.21 mg/dL. Besides, the “Reduction of daily insulin dose” value in assay [4] is on record as 30%.

With `CC(C)c1c(C(=O)Nc2ccccc2)c(-c2ccccc2)c(-c2ccc(F)cc2)n1CC[C@@H](O)C[C@@H](O)CC(=O)O` [ATV, Atorvastatin], the “Histopathological examination of liver” value in assay [1] was “the degree of hepatic injury including steatosis and fatty infiltration were attenuated”. In addition, in assay [2], the “Alk. PO4” value was determined as 54.66 ± 2.58 U/L, the Glucose was found to be 159.33 ± 9.07 mg/dL, the “Liver Index” value is reported as 3.20 ± 0.24 and the SGOT is recorded as 114.00 ± 3.50 U/L. For the same compound, in assay [2], the SGPT was 37.5 ± 2.42 U/L, the “TC (Total Cholesterol)” value was 137.66 ± 5.20 mg/dL and the “TG (Triglyceride)” value is 463.33 ± 12.12 mg/dL.
